Values quoted from earlier work in patent US10324098B2, “T2R taste receptors and genes encoding same” (SENOMYX, INC., priority 2000, dated 2019).

Experiments:
[1] = target: T1, mouse T2R8 (Mus musculus, UniProt Q9JKT3)
T1 sequence (Q9JKT3 1-297): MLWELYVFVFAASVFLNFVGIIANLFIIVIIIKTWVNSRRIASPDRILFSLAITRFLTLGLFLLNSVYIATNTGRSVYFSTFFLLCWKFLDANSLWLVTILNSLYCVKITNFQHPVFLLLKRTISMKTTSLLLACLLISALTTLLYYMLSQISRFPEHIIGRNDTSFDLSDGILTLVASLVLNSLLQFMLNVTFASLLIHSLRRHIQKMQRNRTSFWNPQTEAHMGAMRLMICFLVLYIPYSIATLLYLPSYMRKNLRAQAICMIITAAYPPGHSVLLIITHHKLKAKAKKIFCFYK

[2] = target: T2, human T2R4 (Homo sapiens, UniProt Q9NYW5)
T2 sequence (Q9NYW5 1-299): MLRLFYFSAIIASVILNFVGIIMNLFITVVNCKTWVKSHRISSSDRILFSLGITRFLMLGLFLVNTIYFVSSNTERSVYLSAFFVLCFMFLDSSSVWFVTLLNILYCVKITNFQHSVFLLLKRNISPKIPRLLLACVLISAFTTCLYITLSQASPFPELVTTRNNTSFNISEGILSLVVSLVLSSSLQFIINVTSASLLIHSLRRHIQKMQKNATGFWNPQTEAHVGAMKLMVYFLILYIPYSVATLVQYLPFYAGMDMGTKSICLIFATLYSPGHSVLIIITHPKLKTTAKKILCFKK

[3] = target: T3, mouse T2R5 (Mus musculus, UniProt Q9JKT4)
T3 sequence (Q9JKT4 1-300): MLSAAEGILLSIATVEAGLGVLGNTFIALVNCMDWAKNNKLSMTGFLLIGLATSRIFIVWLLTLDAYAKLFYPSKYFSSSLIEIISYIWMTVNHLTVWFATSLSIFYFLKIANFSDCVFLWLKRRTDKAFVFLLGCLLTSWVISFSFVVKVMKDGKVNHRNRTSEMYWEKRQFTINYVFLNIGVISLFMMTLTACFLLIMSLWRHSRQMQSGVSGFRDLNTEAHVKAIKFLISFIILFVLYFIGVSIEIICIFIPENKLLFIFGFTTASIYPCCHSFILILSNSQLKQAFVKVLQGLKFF

[4] = target: T3, mouse T2R5; details: mouse T2R5, G Protein gustducin

Row | receptor responsive to tastant [1] | receptor responsive to tastant [2] | Structure (SMILES) | receptor receptive to tastant [3] | ligand dependent coupling with gustducin [4]
1 | specifically responsive | specifically responsive | CCCc1cc(=O)[nH]c(=S)[nH]1 [PROP, 6-n-propylthiouracil] |  | 
2 |  |  | C[C@@H]1C[C@@H]([C@H](O)CC2CC(=O)NC(=O)C2)C(=O)[C@@H](C)C1 [cycloheximide] | specifically receptive | strong cycloheximide dependent coupling with gustducin
3 | specifically responsive | specifically responsive | CC[N+](CC)(CC(=O)Nc1c(C)cccc1C)Cc1ccccc1 [denatonium] |  | 
